Results as given in BindingDB's records for doi:10.1021/jm801627a (Vernalis (R&D), 2009).

Biological target: Heat shock 70 kDa protein 1A (Homo sapiens, UniProt P0DMV8)
Test: HSP70 Fluorescence Polarization Assay
Settings: pH 7.4; 23 °C
Procedure: A fluorescein-labeled ATP-based probe was utilized, which binds to the GST fused ATPase domain (amino acids 3-383) of HSP70, producing an increase in mP. The presence of a compound which competitively binds to the same site as the probe would lead to decreased mP values, by increasing the amount of free probe. Compounds were tested as 10-point IC50s. Assay mixtures were incubated for three hours prior to reading on the Fusion (ex 485 nm; em 535 nm). The data was fitted using a 4 parameter logistical data model by XLFit 4 (IDBS).

Sequence of Heat shock 70 kDa protein 1A (P0DMV8 whole entry): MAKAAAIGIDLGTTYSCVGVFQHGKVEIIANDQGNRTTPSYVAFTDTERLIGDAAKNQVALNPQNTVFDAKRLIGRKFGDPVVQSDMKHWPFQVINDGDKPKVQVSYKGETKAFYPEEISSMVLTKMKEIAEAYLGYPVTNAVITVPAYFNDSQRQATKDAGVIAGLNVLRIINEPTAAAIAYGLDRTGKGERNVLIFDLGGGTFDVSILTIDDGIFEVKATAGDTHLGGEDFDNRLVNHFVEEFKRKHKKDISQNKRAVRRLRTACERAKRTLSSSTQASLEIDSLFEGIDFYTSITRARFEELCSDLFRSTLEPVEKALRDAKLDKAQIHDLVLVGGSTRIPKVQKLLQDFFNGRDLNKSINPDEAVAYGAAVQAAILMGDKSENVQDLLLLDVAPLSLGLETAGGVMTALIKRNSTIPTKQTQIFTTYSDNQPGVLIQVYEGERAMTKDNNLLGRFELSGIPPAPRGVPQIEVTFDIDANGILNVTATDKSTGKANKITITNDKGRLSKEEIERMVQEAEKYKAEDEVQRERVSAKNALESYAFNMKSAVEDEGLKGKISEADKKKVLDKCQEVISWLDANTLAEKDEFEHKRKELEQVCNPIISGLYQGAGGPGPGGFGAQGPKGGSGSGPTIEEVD

- IC50: < 0.4 µM
SMILES: Nc1ncnc2c1nc(NCc1ccc3ncccc3c1)n2[C@@H]1O[C@H](COCc2cc(F)c(F)c(F)c2)[C@@H](O)[C@H]1O [adenosine-derived inhibitor, 17]
